Reference: ChEMBL document CHEMBL5649167, “The SUV4-20 inhibitor A-196 verifies a role for epigenetics in genomic integrity” (Nat Chem Biol, 2017)
Calls of active or inactive are those of the source. No cut-off for these calls is given here.

How the values were obtained:
[1] = test system: U2OS; assay: Inhibition of H4K20me1 in human U2OS cells assessed as change in methylation level at 10 uM incubated for 48 hrs by Western blotting analysis; assay type: functional, cell-based
[2] = target: 5-hydroxytryptamine receptor 1E (Homo sapiens) (UniProt P28566); assay: Inhibition of human 5-ht1e in stable HEK cells at 10 uM relative to control; assay type: cell-based
[3] = target: Sigma non-opioid intracellular receptor 1 (Homo sapiens) (UniProt Q99720); assay: Inhibition of human Sigma non-opioid intracellular receptor 1 at 10 uM relative to control; assay type: cell-based
[4] = test system: U2OS; assay: Inhibition of H4K20me2 in human U2OS cells at 3 uM incubated for 48 hrs by Western blotting analysis; assay type: functional, cell-based
[5] = target: Insulin receptor (Homo sapiens) (UniProt P06213); assay: Inhibition of human IRK at 10 uM relative to control
[6] = test system: LNCaP; assay: Cytotoxicity against human LNCaP cells assessed as cell viability at 1.5 to 100 uM incubated after 72 hrs; assay type: functional, cell-based; conditions: dose 1.5-100 µM
[7] = test system: U2OS; assay: Cytotoxicity against human U2OS cells assessed as cell viability at 1.5 to 100 uM incubated after 72 hrs; assay type: functional, cell-based; conditions: dose 1.5-100 µM
[8] = target: Histone-lysine N-methyltransferase, H3 lysine-36 specific (Homo sapiens) (UniProt Q96L73); assay: Inhibition of NSD1 (unknown origin) at 1 to 10 uM incubated for 1 hrs by scintillation proximity assay; conditions: dose 1-10 µM
[9] = target: Histone-lysine N-methyltransferase EHMT2 (Homo sapiens) (UniProt Q96KQ7); assay: Inhibition of G9a (unknown origin) using Biotin-tagged H4K20me1 and [3H-SAM] as substrate at 1 to 10 uM incubated for 2 hrs by scintillation proximity assay; conditions: dose 1-10 µM
[10] = target: Serine/threonine-protein kinase 26 (Homo sapiens) (UniProt Q9P289); assay: Inhibition of human MST4 at 10 uM relative to control
[11] = test system: U2OS; assay: Inhibition of colony formation in human U2OS cells at 1 uM incubated for 48 hrs in the presence of aphidicolin by cell clonogenic assay; assay type: functional, cell-based
[12] = test system: U2OS; assay: Induction of DNA repair in human U2OS cells expressing I-SceI reporter assessed as change in HDR-mediated repair at 1 uM by flow cytometry analysis; assay type: functional, cell-based
[13] = target: N-lysine methyltransferase SMYD2 (Homo sapiens) (UniProt Q9NRG4); assay: Inhibition of SMYD2 (unknown origin) using Biotin-tagged H4K20me1 and [3H-SAM] as substrate at 1 to 10 uM incubated for 2 hrs by scintillation proximity assay; conditions: dose 1-10 µM
[14] = target: Serine/threonine-protein kinase Sgk1 (Homo sapiens) (UniProt O00141); assay: Inhibition of human SGK1 at 10 uM relative to control
[15] = test system: U2OS; assay: Inhibition of colony formation in human U2OS cells at 1 uM incubated for 48 hrs in the presence of hydroxyurea by cell clonogenic assay; assay type: functional, cell-based
[16] = target: Glycogen synthase kinase-3 beta (Homo sapiens) (UniProt P49841); assay: Inhibition of human GSK3beta at 10 uM relative to control
[17] = target: N-lysine methyltransferase KMT5A (Homo sapiens) (UniProt Q9NQR1); assay: Inhibition of SETD8 (unknown origin) using Biotin-tagged H4K20me1 and [3H-SAM] as substrate at 1 to 10 uM incubated for 2 hrs by scintillation proximity assay; conditions: dose 1-10 µM
[18] = target: Aurora kinase A (Homo sapiens) (UniProt O14965); assay: Inhibition of human AurA at 10 uM relative to control
[19] = test system: U2OS; assay: Induction of DNA repair in human U2OS cells expressing I-SceI reporter assessed as decrease in H4K20me3 level by Western blot analysis; assay type: functional, cell-based
[20] = test system: HeLa; assay: Antiproliferative activity against human HeLa cells assessed as inhibition in H4K20me2 expression level 21 doublings by Western blot analysis; assay type: functional, cell-based
[21] = target: Sodium-dependent serotonin transporter (Homo sapiens) (UniProt P31645); assay: Inhibition of human SERT expressed in stable HEK cells at 10 uM relative to control; assay type: cell-based
[22] = target: Serine/threonine-protein kinase TAO2 (Homo sapiens) (UniProt Q9UL54); assay: Inhibition of human TAOK2 at 10 uM relative to control
[23] = target: Serine/threonine-protein kinase PAK 4 (Homo sapiens) (UniProt O96013); assay: Inhibition of human PAK4 at 10 uM relative to control
[24] = test system: U2OS; assay: Inhibition of colony formation in human U2OS cells at 1 uM incubated for 48 hrs in the presence of olaparib by cell clonogenic assay; assay type: functional, cell-based
[25] = target: Cyclin-dependent kinase 2 (Homo sapiens) (UniProt P24941); assay: Inhibition of human CDK2 at 10 uM relative to control
[26] = target: Histone-lysine N-methyltransferase KMT5B (Homo sapiens) (UniProt Q4FZB7); assay: Inhibition of recombinant human 6His-(Tev)-G-SUV420H1 (69 to 335 residues) using Biotin-tagged H4K20me1 and [3H-SAM] as substrate at 10 uM incubated for 2 hrs by scintillation proximity assay
[27] = target: Protein arginine N-methyltransferase 3 (Homo sapiens) (UniProt O60678); assay: Inhibition of PRMT3 (unknown origin) using Biotin-tagged H4K20me1 and [3H-SAM] as substrate at 1 to 10 uM incubated for 2 hrs by scintillation proximity assay; conditions: dose 1-10 µM
[28] = target: Histone-lysine N-methyltransferase SMYD3 (Homo sapiens) (UniProt Q9H7B4); assay: Inhibition of SMYD3 (unknown origin) using Biotin-tagged H4K20me1 and [3H-SAM] as substrate at 1 to 10 uM incubated for 2 hrs by scintillation proximity assay; conditions: dose 1-10 µM
[29] = target: Hepatocyte growth factor receptor (Homo sapiens) (UniProt P08581); assay: Inhibition of human c-Met at 10 uM relative to control
[30] = target: 3-phosphoinositide-dependent protein kinase 1 (Homo sapiens) (UniProt O15530); assay: Inhibition of human PDK1 at 10 uM relative to control
[31] = species on record: Homo sapiens; assay: Inhibition of DNMT3B/3L (unknown origin) at 1 to 10 uM incubated for 1 hrs by scintillation proximity assay; conditions: dose 1-10 µM
[32] = target: Histone-lysine N-methyltransferase KMT5B (Homo sapiens) (UniProt Q4FZB7); assay: Inhibition of recombinant human 6His-(Tev)-G-SUV420H1 (69 to 335 residues) using Biotin-tagged H4K20me1 and [3H-SAM] as substrate at 1 uM incubated for 2 hrs by scintillation proximity assay
[33] = target: Histone-lysine N-methyltransferase KMT5B (Homo sapiens) (UniProt Q4FZB7); assay: Binding affinity to recombinant human 6His-(Tev)-G-SUV420H1 (69 to 335 residues) assessed as increase thermal stability by measuring change in melting temperature at 50 uM by thermal shift assay
[34] = target: Mitogen-activated protein kinase 1 (Homo sapiens) (UniProt P28482); assay: Inhibition of human ERK2 at 10 uM relative to control
[35] = target: Histone-lysine N-methyltransferase NSD3 (Homo sapiens) (UniProt Q9BZ95); assay: Inhibition of NSD3 (unknown origin) at 1 to 10 uM incubated for 1 hrs by scintillation proximity assay; conditions: dose 1-10 µM
[36] = test system: U2OS; assay: Inhibition of colony formation in human U2OS cells at 1 uM incubated for 48 hrs in the presence of CPT by cell clonogenic assay; assay type: functional, cell-based

Chain of Histone-lysine N-methyltransferase KMT5B (Homo sapiens) (Q4FZB7 whole entry, looked up, the tested form may be a part): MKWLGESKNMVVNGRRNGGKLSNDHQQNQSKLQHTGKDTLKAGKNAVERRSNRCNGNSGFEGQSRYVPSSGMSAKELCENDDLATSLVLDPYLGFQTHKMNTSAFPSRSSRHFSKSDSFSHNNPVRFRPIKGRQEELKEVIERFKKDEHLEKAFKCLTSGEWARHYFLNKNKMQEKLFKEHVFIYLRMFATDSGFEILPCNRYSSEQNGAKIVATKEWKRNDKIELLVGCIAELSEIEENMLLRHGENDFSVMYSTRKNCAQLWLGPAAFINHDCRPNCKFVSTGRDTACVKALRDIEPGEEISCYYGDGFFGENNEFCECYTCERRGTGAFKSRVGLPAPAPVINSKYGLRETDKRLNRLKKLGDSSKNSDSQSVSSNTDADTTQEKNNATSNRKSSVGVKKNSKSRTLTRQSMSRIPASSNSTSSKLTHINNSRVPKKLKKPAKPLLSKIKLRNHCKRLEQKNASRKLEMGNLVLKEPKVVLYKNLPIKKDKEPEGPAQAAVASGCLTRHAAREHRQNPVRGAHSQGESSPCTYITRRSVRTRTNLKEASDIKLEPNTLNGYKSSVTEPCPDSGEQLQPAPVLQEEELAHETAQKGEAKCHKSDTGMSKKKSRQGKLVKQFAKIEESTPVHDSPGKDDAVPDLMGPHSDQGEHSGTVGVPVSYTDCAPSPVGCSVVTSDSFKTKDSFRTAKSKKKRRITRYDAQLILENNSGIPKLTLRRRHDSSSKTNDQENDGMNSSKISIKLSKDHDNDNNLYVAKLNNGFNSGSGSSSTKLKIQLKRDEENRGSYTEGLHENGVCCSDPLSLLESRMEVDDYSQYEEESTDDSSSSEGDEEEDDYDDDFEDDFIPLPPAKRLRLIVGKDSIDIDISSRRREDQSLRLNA
Chain of Histone-lysine N-methyltransferase, H3 lysine-36 specific (Homo sapiens) (Q96L73 whole entry): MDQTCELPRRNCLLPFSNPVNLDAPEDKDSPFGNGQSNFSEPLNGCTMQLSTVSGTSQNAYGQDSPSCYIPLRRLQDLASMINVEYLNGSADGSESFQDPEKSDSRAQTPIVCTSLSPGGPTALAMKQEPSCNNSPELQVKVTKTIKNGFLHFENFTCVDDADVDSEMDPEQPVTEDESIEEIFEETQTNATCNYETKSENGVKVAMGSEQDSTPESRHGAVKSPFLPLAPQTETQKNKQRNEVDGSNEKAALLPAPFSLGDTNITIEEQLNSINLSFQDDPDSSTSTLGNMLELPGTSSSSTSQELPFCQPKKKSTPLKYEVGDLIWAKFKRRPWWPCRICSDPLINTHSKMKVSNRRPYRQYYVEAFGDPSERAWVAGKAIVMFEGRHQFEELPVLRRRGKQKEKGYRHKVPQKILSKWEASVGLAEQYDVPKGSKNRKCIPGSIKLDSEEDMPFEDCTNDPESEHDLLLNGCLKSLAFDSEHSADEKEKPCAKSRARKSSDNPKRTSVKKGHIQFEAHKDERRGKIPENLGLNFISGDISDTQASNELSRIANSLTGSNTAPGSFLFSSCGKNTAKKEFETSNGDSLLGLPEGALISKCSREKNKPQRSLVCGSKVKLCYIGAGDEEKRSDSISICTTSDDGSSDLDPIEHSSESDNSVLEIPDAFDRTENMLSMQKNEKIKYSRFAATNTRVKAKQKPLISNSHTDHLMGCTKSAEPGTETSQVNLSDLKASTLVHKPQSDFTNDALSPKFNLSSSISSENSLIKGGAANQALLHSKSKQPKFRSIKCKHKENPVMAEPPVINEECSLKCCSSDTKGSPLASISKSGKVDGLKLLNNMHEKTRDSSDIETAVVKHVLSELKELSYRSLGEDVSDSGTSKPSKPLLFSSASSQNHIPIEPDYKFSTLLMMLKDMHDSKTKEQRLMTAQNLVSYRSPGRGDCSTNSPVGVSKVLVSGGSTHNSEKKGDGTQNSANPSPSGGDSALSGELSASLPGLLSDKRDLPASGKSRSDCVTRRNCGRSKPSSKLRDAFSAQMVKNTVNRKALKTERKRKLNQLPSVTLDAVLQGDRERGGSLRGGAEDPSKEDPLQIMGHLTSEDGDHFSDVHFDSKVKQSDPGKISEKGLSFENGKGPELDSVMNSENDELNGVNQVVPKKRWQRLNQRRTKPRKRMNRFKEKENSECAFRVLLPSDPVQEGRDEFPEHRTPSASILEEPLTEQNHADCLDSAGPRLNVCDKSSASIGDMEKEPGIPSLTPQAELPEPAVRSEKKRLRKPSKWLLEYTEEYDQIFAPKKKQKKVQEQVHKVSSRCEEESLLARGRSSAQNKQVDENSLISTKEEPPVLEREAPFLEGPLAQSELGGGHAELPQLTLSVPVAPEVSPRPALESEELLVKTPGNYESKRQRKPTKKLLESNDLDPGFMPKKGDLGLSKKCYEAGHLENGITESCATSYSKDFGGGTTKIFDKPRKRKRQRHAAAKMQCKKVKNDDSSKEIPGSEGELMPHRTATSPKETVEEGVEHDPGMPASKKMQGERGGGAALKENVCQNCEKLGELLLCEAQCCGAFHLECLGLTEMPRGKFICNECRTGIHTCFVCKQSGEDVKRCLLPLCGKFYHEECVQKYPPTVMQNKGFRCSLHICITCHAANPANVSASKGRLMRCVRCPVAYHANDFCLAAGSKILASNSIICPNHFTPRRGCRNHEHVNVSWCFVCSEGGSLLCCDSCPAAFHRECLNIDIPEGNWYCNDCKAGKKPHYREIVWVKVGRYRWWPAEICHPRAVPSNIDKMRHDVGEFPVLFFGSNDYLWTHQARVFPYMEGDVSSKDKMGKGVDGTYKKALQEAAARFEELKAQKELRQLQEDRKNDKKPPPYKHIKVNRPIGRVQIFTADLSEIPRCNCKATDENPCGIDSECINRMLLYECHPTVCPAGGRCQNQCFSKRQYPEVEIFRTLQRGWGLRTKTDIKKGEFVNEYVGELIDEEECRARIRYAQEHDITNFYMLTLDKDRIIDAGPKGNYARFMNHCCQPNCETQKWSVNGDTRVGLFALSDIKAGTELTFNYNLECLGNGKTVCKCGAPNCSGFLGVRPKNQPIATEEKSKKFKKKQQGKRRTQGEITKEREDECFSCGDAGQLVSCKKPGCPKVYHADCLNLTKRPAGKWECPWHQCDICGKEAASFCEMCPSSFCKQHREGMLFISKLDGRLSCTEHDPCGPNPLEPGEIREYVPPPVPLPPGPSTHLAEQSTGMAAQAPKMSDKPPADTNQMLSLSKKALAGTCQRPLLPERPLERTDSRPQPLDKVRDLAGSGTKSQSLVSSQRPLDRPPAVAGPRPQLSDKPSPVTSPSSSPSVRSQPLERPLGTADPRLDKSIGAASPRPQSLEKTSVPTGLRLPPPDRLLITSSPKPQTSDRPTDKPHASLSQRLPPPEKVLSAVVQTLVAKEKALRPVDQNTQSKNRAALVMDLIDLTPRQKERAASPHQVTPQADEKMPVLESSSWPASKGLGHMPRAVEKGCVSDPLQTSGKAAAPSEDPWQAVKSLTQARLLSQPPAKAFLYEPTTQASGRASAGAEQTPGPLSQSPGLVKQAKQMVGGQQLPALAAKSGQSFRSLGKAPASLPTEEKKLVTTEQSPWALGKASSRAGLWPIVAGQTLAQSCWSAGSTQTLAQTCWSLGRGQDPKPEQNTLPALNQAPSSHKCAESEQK
Chain of Serine/threonine-protein kinase TAO2 (Homo sapiens) (Q9UL54 whole entry): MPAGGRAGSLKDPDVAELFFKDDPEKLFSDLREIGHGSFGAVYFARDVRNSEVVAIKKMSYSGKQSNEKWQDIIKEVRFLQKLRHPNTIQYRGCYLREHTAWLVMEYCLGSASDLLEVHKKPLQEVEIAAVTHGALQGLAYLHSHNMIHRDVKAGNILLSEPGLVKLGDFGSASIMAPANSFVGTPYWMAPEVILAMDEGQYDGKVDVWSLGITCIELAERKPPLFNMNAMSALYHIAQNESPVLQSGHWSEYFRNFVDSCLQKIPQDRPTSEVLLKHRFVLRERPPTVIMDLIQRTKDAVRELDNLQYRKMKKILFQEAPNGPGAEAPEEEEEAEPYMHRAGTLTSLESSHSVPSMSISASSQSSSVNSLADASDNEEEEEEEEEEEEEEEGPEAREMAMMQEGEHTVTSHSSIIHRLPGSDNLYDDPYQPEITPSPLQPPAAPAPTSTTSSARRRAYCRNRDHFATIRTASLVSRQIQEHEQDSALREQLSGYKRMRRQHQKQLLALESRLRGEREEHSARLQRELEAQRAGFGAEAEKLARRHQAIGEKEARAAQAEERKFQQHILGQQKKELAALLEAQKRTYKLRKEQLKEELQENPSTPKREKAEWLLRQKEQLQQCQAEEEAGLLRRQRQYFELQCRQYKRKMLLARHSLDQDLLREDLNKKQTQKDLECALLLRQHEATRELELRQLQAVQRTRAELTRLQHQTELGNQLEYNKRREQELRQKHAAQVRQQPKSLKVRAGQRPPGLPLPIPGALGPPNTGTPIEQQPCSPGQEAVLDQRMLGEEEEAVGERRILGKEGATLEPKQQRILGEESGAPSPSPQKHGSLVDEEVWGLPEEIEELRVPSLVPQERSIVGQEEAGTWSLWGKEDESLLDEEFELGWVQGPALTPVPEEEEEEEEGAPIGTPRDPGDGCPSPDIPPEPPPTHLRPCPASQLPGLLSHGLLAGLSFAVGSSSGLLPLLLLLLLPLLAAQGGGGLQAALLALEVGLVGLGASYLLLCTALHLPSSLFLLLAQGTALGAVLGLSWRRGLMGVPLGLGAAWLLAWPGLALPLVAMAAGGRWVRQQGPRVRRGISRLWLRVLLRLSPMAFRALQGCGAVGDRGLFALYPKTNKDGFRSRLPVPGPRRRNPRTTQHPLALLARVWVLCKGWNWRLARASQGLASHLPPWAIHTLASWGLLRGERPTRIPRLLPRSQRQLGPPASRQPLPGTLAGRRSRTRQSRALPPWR
Chain of Sigma non-opioid intracellular receptor 1 (Homo sapiens) (Q99720 whole entry): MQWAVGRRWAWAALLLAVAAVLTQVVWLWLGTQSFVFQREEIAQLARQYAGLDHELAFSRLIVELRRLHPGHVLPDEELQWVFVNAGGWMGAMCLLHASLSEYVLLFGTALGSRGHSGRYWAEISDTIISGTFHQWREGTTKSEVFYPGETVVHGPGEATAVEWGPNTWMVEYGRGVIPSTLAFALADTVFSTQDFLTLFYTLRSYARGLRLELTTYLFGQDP

**Q.** `O=C(c1nnc(NC2CCCC2)c2cc(Cl)c(Cl)cc12)N1CCC(O)CC1` was tested. Which Activity [1] did it give?
**A.** inactive

**Q.** What about the inhibition [2] of the same compound?
**A.** 10%

**Q.** And the inhibition [3]?
**A.** -7%

**Q.** `Clc1cc2c(NC3CCCC3)nnc(-c3ccncc3)c2cc1Cl` was tested. Which inhibition [4] did it give?
**A.** Active

**Q.** And the inhibition [5]?
**A.** 7%

**Q.** What about the Activity [6] of the same compound?
**A.** Active

**Q.** And the Activity [7]?
**A.** Active

**Q.** And the inhibition [8]?
**A.** inactive

**Q.** And the inhibition [9]?
**A.** inactive

**Q.** What about the inhibition [10] of the same compound?
**A.** -2%

**Q.** And the inhibition [11]?
**A.** Active

**Q.** And the Activity [12]?
**A.** inactive

**Q.** And the inhibition [13]?
**A.** inactive

**Q.** What about the inhibition [14] of the same compound?
**A.** -4%

**Q.** And the inhibition [15]?
**A.** Active

**Q.** What about the inhibition [16] of the same compound?
**A.** 1%

**Q.** And the inhibition [17]?
**A.** inactive

**Q.** And the inhibition [18]?
**A.** -6%

**Q.** What about the Activity [19] of the same compound?
**A.** Active

**Q.** What about the Activity [20] of the same compound?
**A.** Active

**Q.** And the inhibition [21]?
**A.** -7%

**Q.** And the inhibition [22]?
**A.** 0%

**Q.** What about the inhibition [23] of the same compound?
**A.** -8%

**Q.** What about the inhibition [24] of the same compound?
**A.** Active

**Q.** What about the inhibition [25] of the same compound?
**A.** -1%

**Q.** And the inhibition [26]?
**A.** Active

**Q.** And the inhibition [27]?
**A.** inactive

**Q.** And the inhibition [28]?
**A.** inactive

**Q.** And the inhibition [29]?
**A.** -4%

**Q.** What about the inhibition [30] of the same compound?
**A.** -7%

**Q.** What about the inhibition [31] of the same compound?
**A.** inactive

**Q.** What about the inhibition [32] of the same compound?
**A.** Active

**Q.** And the ΔTm [33]?
**A.** 6.4 °C

**Q.** And the inhibition [34]?
**A.** 1%

**Q.** What about the inhibition [35] of the same compound?
**A.** inactive

**Q.** What about the inhibition [36] of the same compound?
**A.** Active
